In article PMC6956230, “Sequence Determinants of Substrate Ambiguity in a HAD Phosphosugar Phosphatase of Arabidopsis Thaliana” (Biology, 2019):

Columns and labels:
AtSgpp (MBP-AtSgpp) [1] = target: T1, AtSgpp (MBP-AtSgpp) (Arabidopsis thaliana, UniProt Q9ZVJ5); test: phosphate release, molybdate/ascorbic acid assay, Lineweaver-Burk; assay type: biochemical; details: 20 mM Tris-HCl pH 7.0, 5 mM MgCl2, 32 °C, MBP fusion, brackets: 95% CI and [SD]
T1 construct: gene SGPP; full-length coding region (735 bp EcoRI/SalI fragment) in pMAL-c2x; N-terminal MBP fusion kept, vector residues Ile-Ser-Glu-Phe before Met1; expressed in E. coli TB1 with pSBETa; amylose resin
T1 sequence (Q9ZVJ5 1-244): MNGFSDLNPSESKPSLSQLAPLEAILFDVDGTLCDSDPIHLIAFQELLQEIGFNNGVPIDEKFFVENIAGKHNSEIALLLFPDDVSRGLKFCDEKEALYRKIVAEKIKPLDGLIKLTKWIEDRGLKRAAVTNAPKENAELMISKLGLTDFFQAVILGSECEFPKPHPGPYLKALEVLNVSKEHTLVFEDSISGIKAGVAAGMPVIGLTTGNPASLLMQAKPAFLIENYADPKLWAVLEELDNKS
Text: (§1) phosphate release, molybdate/ascorbic acid assay, Lineweaver-Burk on AtSgpp (MBP-AtSgpp)

AtSgpp (MBP-AtSgpp) [2] = target: T2, AtSgpp (MBP-AtSgpp) (Arabidopsis thaliana, UniProt Q9ZVJ5, DEL53-55); test: as above; assay type: biochemical; details: 20 mM Tris-HCl pH 7.0, 5 mM MgCl2, 32 °C, MBP fusion, brackets: 95% CI and [SD]
T2 construct: gene SGPP; full-length coding region (735 bp EcoRI/SalI fragment) in pMAL-c2x; N-terminal MBP fusion kept, vector residues Ile-Ser-Glu-Phe before Met1; expressed in E. coli TB1 with pSBETa; amylose resin
T2 sequence (Q9ZVJ5 with tags, fused parts or gaps DEL53-55): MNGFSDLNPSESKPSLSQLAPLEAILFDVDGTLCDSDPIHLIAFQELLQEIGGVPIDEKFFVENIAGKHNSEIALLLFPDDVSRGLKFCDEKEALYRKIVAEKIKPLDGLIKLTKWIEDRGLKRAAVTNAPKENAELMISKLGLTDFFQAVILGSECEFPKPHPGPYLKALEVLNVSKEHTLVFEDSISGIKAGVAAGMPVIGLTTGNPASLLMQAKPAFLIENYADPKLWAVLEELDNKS
Text: as §1

SMILES | apparent Km (AtSgpp (MBP-AtSgpp) [1]) | apparent Km (AtSgpp (MBP-AtSgpp) [2])
O=P(O)(O)OCC(O)CO (racemic) [DL-glycerol-3-phosphate] | 7.3 (7.1–7.5) × 10^−3 [0.2] M | 14 (13.7–14.3) × 10^−3 [0.3] M
O=P(O)(O)OC[C@H]1OC(O)C[C@@H](O)[C@@H]1O (stereo partly drawn) [2-deoxy-D-glucose-6-phosphate] | 4.6 (4–5.2) × 10^−3 [0.5] M | 4.7 (4.5–4.9) × 10^−3 [0.2] M
O=P(O)(O)OC[C@H]1OC(O)(CO)[C@@H](O)[C@@H]1O (stereo partly drawn) [D-fructose-6-phosphate] | 7.7 (7.3–8.1) × 10^−3 [0.4] M | 10 (9.5–10.5) × 10^−3 [0.4] M
O=P(O)(O)OC[C@H]1OC(O)[C@H](O)[C@@H](O)[C@@H]1O (stereo partly drawn) [D-glucose-6-phosphate] | 7.1 (6.8–7.4) × 10^−3 [0.3] M | 8.3 (8–8.6) × 10^−3 [0.3] M
O=P(O)(O)OC[C@H]1OC(O)[C@@H](O)[C@@H](O)[C@@H]1O (stereo partly drawn) [D-mannose-6-phosphate] | 4.9 (4.2–5.6) × 10^−3 [0.6] M | 6.7 (6.6–6.8) × 10^−3 [0.1] M
O=P(O)(O)OC[C@H]1OC(O)[C@H](O)[C@@H]1O (stereo partly drawn) [D-ribose-5-phosphate] | 3.6 (3.5–3.7) × 10^−3 [0.1] M | 3.7 (3.5–3.9) × 10^−3 [0.2] M
